Measurements published in paper PMC9064607 (Biochemistry, 2022).

Target: T1, Peptidylglycine monooxygenase (PHM) (Rattus norvegicus, UniProt P14925)
T1 sequence (P14925 42-356): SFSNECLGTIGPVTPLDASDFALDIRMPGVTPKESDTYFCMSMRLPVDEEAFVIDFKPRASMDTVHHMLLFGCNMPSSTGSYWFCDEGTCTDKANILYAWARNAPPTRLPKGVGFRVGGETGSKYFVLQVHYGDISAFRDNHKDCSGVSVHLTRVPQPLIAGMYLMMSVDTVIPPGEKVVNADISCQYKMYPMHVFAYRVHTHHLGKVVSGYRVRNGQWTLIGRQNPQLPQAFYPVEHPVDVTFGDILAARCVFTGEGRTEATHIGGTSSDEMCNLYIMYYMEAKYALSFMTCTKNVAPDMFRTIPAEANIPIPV
Assay: chemical-quench product formation versus ascorbate, fitted to a binding event
Format: biochemical

For `O=C1O[C@H]([C@@H](O)CO)C(O)=C1O` [ascorbate], the Kd was 117 µM.
